The values that follow come from PubChem BioAssay (NCI).

Assay in all cases: growth of human tumour cells (NCI), 48 h
The test system of assay [1] is A549 NSCLC.
The subject of assay [2] is CAKI-1 renal.
Assay [3] relates to SNB-19 CNS.
In assay [4] the test system is M14 melanoma.
In assay [5] the test system is OVCAR-4 ovarian.
Assay [6] deals with SF-268 CNS.
Assay [7] has as its system NCI-H23 lung.
Assay [8] relates to ACHN renal.
The subject of assay [9] is DU-145 prostate.
Assay [10] deals with UACC-257 melanoma.
For assay [11], the system named is TK-10 renal.
Assay [12] concerns EKVX NSCLC.
Assay [13] concerns KM12 colon.
For assay [14], the system named is MCF7 breast.
Assay [15] concerns SK-OV-3 ovarian.
Assay [16] relates to HCT-15 colon.
For assay [17], the system named is UACC-62 melanoma.
Assay [18] has as its system MDA-MB-231 breast.
Assay [19] relates to MDA-N.

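The compound was tested at five concentrations on cells cultured in 96-well plates, with a 48-hour exposure period. TGI denotes the concentration required for complete inhibition of growth.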

Consider `O=C(CSCC(=O)N/N=C\c1ccc(O)c(O)c1O)N/N=C\c1ccc(O)c(O)c1O`, for which the TGI was 53.7 µM in assay [1]; 37.1 µM in assay [2]; more than 100 µM in assay [3]; 21.5 µM in assay [4]; 9.22 µM in [5]; more than 100 µM in [6]. Besides, the TGI in [7] was 3.65 µM; in [8] it was 22 µM; in assay [9], 29.1 µM; in [10], 50 µM; in assay [11] it was 42 µM; in assay [12] it was 50.4 µM. Further, the TGI is 37.1 µM in assay [13]; 57.4 µM in [14]; more than 100 µM in assay [15]; 29.1 µM in assay [16]; 41.8 µM in [17]; 78.1 µM in assay [18].
For `O=[N+]([O-])c1cc(N=Nc2c(O)ccc3cc(S(=O)(=O)O)ccc23)c(O)c([N+](=O)[O-])c1`, the TGI in assay [1], in [19], in assay [2], in assay [3], in assay [4] and in assay [5] was more than 100 µM in each case. Also, the TGI in assay [6], in assay [7], in assay [8], in assay [9], in [10] and in [11] was more than 100 µM each time. The TGI in assay [12], in assay [13], in [15], in assay [16], in [17] and in assay [18] was more than 100 µM throughout.
For `CN1C(=O)C(C(=O)Nc2ccccn2)C2C[C@@]1(C)Oc1ccccc12` (some centres undefined), the TGI in [1], in assay [19], in assay [2], in [3], in assay [4] and in assay [5] was more than 100 µM throughout. Further, the TGI in [6], in assay [7], in assay [8], in assay [9], in assay [10] and in assay [11] was more than 100 µM throughout. Further, the TGI in [12], in assay [13], in assay [15], in assay [16], in [17] and in assay [18] was more than 100 µM in each case.
Consider `O=C(CC(C(=O)c1ccsc1)c1ccsc1)c1ccsc1` (centres undefined), for which the TGI in assay [1], in assay [2], in [3], in [4], in assay [5] and in assay [6] was more than 100 µM throughout. The TGI in assay [7], in assay [8], in [9], in [10], in [11] and in assay [12] was more than 100 µM in each case. For the same compound, the TGI in assay [13], in [14], in assay [15], in assay [16], in assay [17] and in assay [18] was more than 100 µM each time.
On to `Nc1cc2ncnn2c(SCC(=O)N/N=C/C(Br)=C\c2ccccc2)n1`, for which the TGI in [1] is 60.1 µM; in [19] it was 31.6 µM; in assay [2] it was 37.2 µM; in assay [3] it was more than 100 µM; in [7] it was 33.1 µM; in assay [8] it was 62.7 µM. For the same compound, the TGI in [10] was 25.3 µM; in [11], 72.3 µM; in assay [12] it was more than 100 µM; in assay [13] it was 52.7 µM; in assay [14], 38.8 µM; in assay [16], 37.1 µM. In assay [18], this compound gave a TGI of 40 µM.
For `O=C1c2ccccc2C(=O)c2c(NC(=O)C3CC3)ccc(NC(=O)C3CC3)c21`, the TGI in assay [1], in assay [19], in assay [3], in assay [7], in [8] and in assay [10] was more than 100 µM each time. Besides, the TGI in assay [11], in assay [12], in assay [13], in assay [14], in assay [16] and in assay [17] was more than 100 µM in each case. Also, in assay [18], the TGI is more than 100 µM.
Consider `COc1ccc(CNc2nc(NCc3ccc(OC)cc3)nc(NC3CCCC3)n2)cc1`, for which the TGI in assay [1] is more than 67.7 µM; in assay [2] it was more than 84.1 µM; in [3], more than 100 µM; in [4], more than 100 µM; in assay [5], more than 100 µM; in [6], more than 100 µM. The TGI in assay [7] is more than 22.2 µM; in assay [8] it was more than 100 µM; in assay [9], more than 40.7 µM; in assay [10], more than 100 µM; in [11], more than 26.1 µM; in assay [12], more than 100 µM. For the same compound, the TGI is 1.59 µM in assay [13]; 9.83 µM in assay [14]; more than 100 µM in assay [15]; more than 20.6 µM in assay [16]; more than 59.6 µM in assay [17]; more than 31.2 µM in assay [18].
Regarding `N#CC(C#N)=c1c2ccccc2c(=C(C#N)C#N)c2ccccc12`, the TGI was more than 100 µM in assay [1]; 41.5 µM in [19]; 28.6 µM in assay [2]; 32.4 µM in assay [3]; 32.8 µM in assay [4]; 77.5 µM in assay [6]. The TGI in assay [7] is 43.7 µM; in assay [8] it was 43.3 µM; in assay [10], 51.2 µM; in assay [13], 37.6 µM; in assay [14] it was more than 100 µM; in assay [15], 44.4 µM. Also, the TGI was determined as 65 µM in [16], 28.5 µM in [17] and 32.9 µM in [18].
`CN(C)c1ccc(/C=N/c2nc3cc4sc(/N=C/c5ccc(N(C)C)cc5)nc4cc3s2)cc1`: the TGI in assay [1], in assay [2], in assay [3], in assay [4], in assay [5] and in [6] was more than 100 µM each time. Also, the TGI was more than 100 µM in [7]; more than 100 µM in assay [8]; 99.1 µM in assay [9]; more than 100 µM in assay [10]; more than 100 µM in assay [11]; more than 100 µM in [12]. Also, the TGI in assay [13], in assay [14], in [15], in [16], in assay [17] and in assay [18] was more than 100 µM throughout.
